Values after ≈ are worked out from the molar mass of the structure shown.
Columns and labels:
[1] = system: Histoplasma capsulatum; assay: Antifungal activity against Histoplasma capsulatum yeast phase after 4 days by broth microdilution method; type: functional; settings: 96 h
[2] = system: Duodenum; assay: Myorelaxant activity in California White rabbit duodenum assessed as relaxation of high-potassium-induced contraction; type: functional, tissue-based; settings: Oryctolagus cuniculus
[3] = system: Histoplasma capsulatum; assay: Antifungal activity against Histoplasma capsulatum filamentous phase after 7 days by broth microdilution method; type: functional; settings: 168 h
[4] = system: Coccidioides posadasii; assay: Antifungal activity against Coccidioides posadasii filamentous phase after 48 hrs by broth microdilution method; type: functional
[5] = system: HL-60; assay: Cytotoxicity against human HL60 cells assessed as reduction in cell viability after 24 hrs by MTT assay; type: functional, cell-based; settings: HL-60, 24 h
[6] = species: Mus musculus; assay: Sedative effect in Swiss mouse assessed as reduction in motility; type: functional; design: scale not given: the % may be the effect or the level left
[7] = system: U373 MG; assay: Cytoprotective activity against H2O2-induced cell death in human U373MG cells assessed as increase in cell viability preincubated for 24 hrs followed by H2O2-stimulation and measured after 30 mins by MTT assay; type: functional, cell-based, U-373MG ATCC
[8] = system: Rattus norvegicus; assay: Antiischemic stroke activity in iv dosed Sprague-Dawley rat middle cerebral artery occlusion-induced ischemia-reperfusion injury model assessed as decrease in infarct size by TTC staining based assay; type: functional
[9] = target: T1, Transient receptor potential cation channel subfamily A member 1 (Homo sapiens, UniProt O75762); assay: Antagonist activity at TRPA1 (unknown origin) expressed in Xenopus laevis oocytes assessed as inhibition of mustard oil-induced currents by two-electrode voltage clamp method; type: cell-based
T1 sequence (O75762 whole entry): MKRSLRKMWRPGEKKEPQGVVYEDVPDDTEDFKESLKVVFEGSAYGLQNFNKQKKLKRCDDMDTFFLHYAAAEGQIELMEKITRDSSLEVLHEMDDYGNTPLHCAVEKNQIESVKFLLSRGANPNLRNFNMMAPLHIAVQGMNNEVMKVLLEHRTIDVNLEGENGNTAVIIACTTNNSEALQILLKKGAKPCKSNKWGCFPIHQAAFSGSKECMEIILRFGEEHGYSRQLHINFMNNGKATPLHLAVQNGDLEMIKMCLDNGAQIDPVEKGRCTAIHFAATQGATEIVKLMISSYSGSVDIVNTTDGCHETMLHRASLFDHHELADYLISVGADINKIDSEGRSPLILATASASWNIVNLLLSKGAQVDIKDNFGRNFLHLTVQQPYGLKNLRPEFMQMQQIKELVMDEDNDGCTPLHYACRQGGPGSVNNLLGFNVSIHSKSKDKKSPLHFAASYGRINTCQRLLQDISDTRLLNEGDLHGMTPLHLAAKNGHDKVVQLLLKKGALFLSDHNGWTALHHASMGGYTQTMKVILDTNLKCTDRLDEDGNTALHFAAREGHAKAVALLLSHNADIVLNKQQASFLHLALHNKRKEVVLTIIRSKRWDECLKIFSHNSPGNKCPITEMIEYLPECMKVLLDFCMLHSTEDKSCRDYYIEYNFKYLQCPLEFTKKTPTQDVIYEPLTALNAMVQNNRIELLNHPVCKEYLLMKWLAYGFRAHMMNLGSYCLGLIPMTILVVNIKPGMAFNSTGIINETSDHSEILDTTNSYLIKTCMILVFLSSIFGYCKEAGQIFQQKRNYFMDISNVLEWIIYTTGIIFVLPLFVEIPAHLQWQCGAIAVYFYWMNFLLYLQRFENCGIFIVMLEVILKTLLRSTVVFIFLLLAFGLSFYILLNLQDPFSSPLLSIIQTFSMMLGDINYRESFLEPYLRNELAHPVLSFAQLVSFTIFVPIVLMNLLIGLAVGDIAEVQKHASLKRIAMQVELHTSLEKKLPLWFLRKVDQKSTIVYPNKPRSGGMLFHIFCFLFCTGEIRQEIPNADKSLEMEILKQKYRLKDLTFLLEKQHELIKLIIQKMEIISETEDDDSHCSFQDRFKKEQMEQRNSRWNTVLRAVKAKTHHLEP

[10] = system: SMMC-7721; assay: Antiinvasive activity against human SMMC7721 cells by matrigel-based transwell assay; type: functional, cell-based
[11] = system: HepG2; assay: Antiinvasive activity against human HepG2 cells by matrigel-based transwell assay; type: functional, cell-based
[12] = system: MHCC97H; assay: Antiinvasive activity against human MHCC97H cells by matrigel-based transwell assay; type: functional, cell-based
[13] = system: RAW264.7; assay: Inhibition of LPS-induced nitric oxide production in mouse RAW264.7 cells measured after 20 hrs by Griess assay; type: functional, cell-based; settings: RAW264.7, 20 h
[14] = system: HeLa; assay: Cytotoxicity against human HeLa cells after 3 days by WST1 assay; type: functional, cell-based; settings: 72 h
[15] = system: U-937; assay: Cytotoxicity against human U937 cells after 3 days by WST1 assay; type: functional, cell-based; settings: U-937, 72 h
[16] = species: Mus musculus; assay: Sedative effect in Swiss mouse assessed as reduction in motility at plasma concentration of 27 nM; type: functional; design: scale not given: the % may be the effect or the level left
[17] = system: T47D; assay: Cytotoxicity against human T47D cells assessed as inhibition of cell proliferation after 24 hrs by WST1 assay; type: functional, cell-based
[18] = system: SW-620; assay: Cytotoxicity against human SW620 cells assessed as inhibition of cell proliferation after 24 hrs by WST1 assay; type: functional, cell-based; settings: SW-620, 24 h
[19] = system: Trichophyton rubrum; assay: Antimicrobial activity against Trichophyton rubrum after 7 days by microdilution method; type: functional; settings: 168 h
[20] = system: HepG2; assay: Cytotoxicity against human HepG2 cells assessed as inhibition of cell proliferation after 24 hrs by WST1 assay; type: functional, cell-based; settings: HepG2, 24 h
[21] = Toxicity in po dosed albino Wistar rat; type: organism-based; settings: in vivo
[22] = Inhibition of IL1beta-induced nitric oxide production in human primary chondrocytes preincubated for 30 mins followed by IL1beta-stimulation and measured after 24 hrs by Griess assay; type: functional, cell-based
[23] = Antitumor activity against human HubCCA1 cells xenografted in BALB/c nude mouse assessed as reduction in tumor size at 100 mg/kg, po administered once daily for 30 days measured every 3 consecutive days during compound dosing; type: functional; design: scale not given: the % may be the effect or the level left
[24] = Antitumor activity against human HubCCA1 cells xenografted in BALB/c nude mouse assessed as reduction in lung metastasis at 100 mg/kg, po administered once daily for 30 days measured post last dose by haematoxylin-eosin staining based assay; type: functional; design: scale not given: the % may be the effect or the level left
[25] = target: T1, Transient receptor potential cation channel subfamily A member 1; assay: Agonist activity at human TRPA1
[26] = Antitumor activity against human HubCCA1 cells xenografted in BALB/c nude mouse assessed as mouse survival at 100 mg/kg, po administered once daily for 30 days; type: functional
[27] = system: HT-29; assay: Cytotoxicity against human HT-29 cells assessed as reduction in cell viability after 24 hrs by MTT assay; type: functional, cell-based; settings: HT-29, 24 h
[28] = Toxicity in po dosed rat; type: organism-based; settings: in vivo
[29] = Toxicity in po dosed mouse; type: organism-based; settings: in vivo
[30] = Dermal toxicity in rabbit; type: organism-based, Oryctolagus cuniculus; settings: in vivo, topical or ocular
[31] = system: Gardnerella vaginalis; assay: Antimicrobial activity against Gardnerella vaginalis; type: functional
[32] = species: Mus musculus; assay: Sedative effect in Swiss mouse assessed as reduction in motility at 34 nM; type: functional; design: scale not given: the % may be the effect or the level left
[33] = system: Escherichia coli; assay: Antibacterial activity against Escherichia coli CMCC 44102 after 24 hrs by broth dilution method; type: functional
[34] = system: Candida albicans; assay: Antimicrobial activity against Candida albicans; type: functional
[35] = target: T2, Cannabinoid receptor 2 (Homo sapiens, UniProt P34972); assay: Agonist activity at recombinant human Cb2 receptor expressed in CHOK1 cells assessed as inhibition of forskolin-stimulated cAMP levels measured up to 30 mins by luminescence assay; type: functional, cell-based
T2 sequence (P34972 whole entry): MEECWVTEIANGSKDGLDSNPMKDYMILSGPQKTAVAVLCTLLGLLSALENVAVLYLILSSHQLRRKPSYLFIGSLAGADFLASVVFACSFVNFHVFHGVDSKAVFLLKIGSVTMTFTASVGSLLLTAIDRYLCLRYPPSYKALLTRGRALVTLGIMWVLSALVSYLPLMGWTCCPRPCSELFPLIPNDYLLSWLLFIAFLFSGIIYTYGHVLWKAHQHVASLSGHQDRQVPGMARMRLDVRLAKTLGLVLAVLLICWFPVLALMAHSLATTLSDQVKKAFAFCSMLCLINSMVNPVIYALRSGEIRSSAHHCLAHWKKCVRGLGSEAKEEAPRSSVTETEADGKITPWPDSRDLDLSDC

[36] = target: T2, Cannabinoid receptor 2; assay: Displacement of [3H]CP55940 from human CB2 expressed in CHOK1 cell membranes after 2 hrs by liquid scintillation counting method
[37] = target: Neuronal acetylcholine receptor subunit alpha-7 (Homo sapiens, UniProt P36544); assay: Antagonist activity at human alpha7 nACHR expressed in Xenopus laevis oocytes assessed as inhibition of acetylcholine-induced currents at -70 mV holding potential by electrophysiology; type: cell-based
Neuronal acetylcholine receptor subunit alpha-7, sequence (P36544 whole entry): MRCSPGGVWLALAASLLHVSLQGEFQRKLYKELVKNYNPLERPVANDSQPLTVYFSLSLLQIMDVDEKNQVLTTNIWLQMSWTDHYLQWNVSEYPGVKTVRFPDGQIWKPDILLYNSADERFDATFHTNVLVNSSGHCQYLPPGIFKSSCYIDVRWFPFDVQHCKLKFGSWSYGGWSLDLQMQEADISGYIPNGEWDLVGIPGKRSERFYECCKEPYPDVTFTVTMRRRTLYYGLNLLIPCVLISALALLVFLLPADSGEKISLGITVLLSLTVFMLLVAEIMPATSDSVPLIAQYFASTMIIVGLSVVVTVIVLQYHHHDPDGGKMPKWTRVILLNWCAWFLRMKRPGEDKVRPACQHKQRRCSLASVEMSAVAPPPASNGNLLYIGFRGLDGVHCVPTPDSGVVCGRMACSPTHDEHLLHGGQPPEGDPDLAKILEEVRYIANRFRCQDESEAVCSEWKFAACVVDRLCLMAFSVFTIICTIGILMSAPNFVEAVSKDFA

[38] = system: Leukemia cell; assay: Cytotoxicity against ALL/AML patient derived primary leukemia cells after 24 hrs by LDH release assay; type: functional, cell-based; settings: Homo sapiens

Compound: CC1=CCC(O)(C(C)C)CC1 (stereo not drawn) [TERPINEOL]
- MIC [1]: 10 µg/mL (≈ 64.8 µM)
- IC50 [2]: 170 µM
- MIC [3]: 30 µg/mL (≈ 194 µM)
- MIC [4]: 250 µg/mL (≈ 1620 µM)
- IC50 [5]: 30 µM

Compound: CC1=CC[C@@H]2C[C@H]1C2(C)C [1R-(+)-ALPHA-PINENE]
- Activity [6]: 14%
- IC50 [7]: 80 µM

Compound: CC1(C)C2CCC1(C)C(O)C2 (stereo not drawn) [BORNEOL]
- ED50 [8]: 0.36 mg/kg
- IC50 [9]: 300 µM

Compound: C=C(C)[C@H]1CC=C(CO)CC1
- IC50 [10]: 100 µM
- IC50 [11]: 100 µM
- IC50 [12]: 100 µM

Compound: C/C1=C\CC(C)(C)/C=C/C(=O)/C(C)=C/C(O)C1 (stereo not drawn)
- IC50 [13]: 14.1 µM

Compound: C=C[C@@](C)(O)CCC=C(C)C
- IC50 [14]: 11 µM
- IC50 [15]: 3 µM
- Activity [16]: 73%
- IC50 [17]: 224 µM
- IC50 [18]: 222 µM
- MIC [19]: 260 µg/mL (≈ 1690 µM)
- IC50 [20]: 290 µM

Compound: CC(C)=CCC/C(C)=C/CO [GERANIOL]
- LD50 [21]: 3600 mg/kg

Compound: C=CC(=C)CCC=C(C)C [MYRCENE]
- IC50 [22]: 37.3 µg/mL (≈ 274 µM)

Compound: C=C1CCC[C@]2(C)CC[C@@H](C(C)(C)O)C[C@@H]12 [BETA-EUDESMOL]
- Activity [23]: 92%
- Activity [24]: 95%
- EC50 [25]: 33 µM
- Activity [26]: 64%

Compound: C/C1=C\CC/C(C)=C/CC(C)(C)/C=C/C1 [ALPHA-HUMULONE]
- IC50 [27]: 54 µM

Compound: C=CC(C)(O)CC/C=C(\C)CCC=C(C)C (stereo not drawn) [NEROLIDOL]
- LD50 [28]: 5000 mg/kg
- LD50 [29]: 10000 mg/kg
- LD50 [30]: > 2000 mg/kg

Compound: CC1=CCC(C(C)(C)O)CC1 (stereo not drawn)
- MIC [31]: 0.06 %v/v
- Activity [32]: 45%
- MIC [33]: 0.78 uL/ml
- MIC [34]: 0.125 %v/v

Compound: C=C1CC/C=C(\C)CC[C@@H]2[C@@H]1CC2(C)C [BETA-CARYOPHYLLENE]
- EC50 [35]: 1.9 µM
- Ki [36]: 0.15 µM

Compound: CC(C)=CCC[C@](C)(O)[C@@H]1CC=C(C)CC1 [LEVOMENOL]
- IC50 [37]: 3.1 µM
- IC50 [38]: 14 µM

From ChEMBL document CHEMBL4411259, “Medicinal properties of terpenes found in Cannabis sativa and Humulus lupulus” (Eur J Med Chem, 2018)
